21 molecules from patent US8580762B2, “Substituted purine and 7-deazapurine compounds” (Epizyme, Inc., priority 2010, dated 2013) can be followed below.

Molecules are shown by their SMILES.

For this experiment, the target named is DOT1L(1-416) (Homo sapiens, UniProt Q8TEK3). Kind of experiment: Determination of IC50: DOT1L(1-416) methyltransferase assay, 3H-SAM, oligonucleosome substrate, Flashplate. The class given is biochemical. Particulars: class symbols; read-out: DOT1L IC50. As for the experimental part: Determination of IC50. Test compounds were serially diluted 3 fold in DMSO for 10 points and 1 μl was plated in a 384 well microtiter plate. […] 10 μl per well of substrate mix (same assay buffer with 200 nM S-[methyl-^3H]-adenosyl-L methionine, 600 nM of unlabeled […], and 20 nM oligonueleosome) was added to initiate the reaction. Reaction was incubated for 120 minutes at room temperature and quenched with 10 μl per well of 100 μM S-methyl-adenosyl-L methionine. For detection, substrate from 50 μl of reaction was immobilized on a 384 well Streptavidin coated Flashplate (Perkin Elmer) (also coated with 0.2% polyethyleneimine) and read on a Top Count scintillation counter (Perkin Elmer).
Sequence of DOT1L(1-416) (Q8TEK3 1-416): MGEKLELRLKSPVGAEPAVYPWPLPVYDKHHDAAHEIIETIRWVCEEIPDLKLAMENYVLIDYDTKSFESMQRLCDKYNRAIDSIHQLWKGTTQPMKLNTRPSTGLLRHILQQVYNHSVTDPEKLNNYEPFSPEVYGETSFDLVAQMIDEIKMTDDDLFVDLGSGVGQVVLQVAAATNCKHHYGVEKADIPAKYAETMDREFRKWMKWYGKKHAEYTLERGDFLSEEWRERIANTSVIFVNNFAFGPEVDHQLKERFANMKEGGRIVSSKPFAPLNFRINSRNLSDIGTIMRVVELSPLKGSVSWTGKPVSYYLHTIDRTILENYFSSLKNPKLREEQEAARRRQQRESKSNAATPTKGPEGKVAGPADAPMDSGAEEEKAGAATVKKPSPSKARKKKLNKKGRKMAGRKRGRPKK
Turning to `CC(C)(C)c1ccc2[nH]c(CC[C@H]3C[C@@H](N(C[C@H]4C[C@@H](n5ccc6c(N)ncnc65)[C@H](O)[C@@H]4O)C4CCC4)C3)nc2c1` [Compound 46, (1R,2S,3R,5R)-3-(4-amino-7H-pyrrolo[2,3-d]pyrimidin-7-yl)-5-((((1r,3S)-3-(2-(5-(tert-butyl)-1,1-benzo[d]imidazol-2-yl)ethyl)cyclobutyl)(cyclobutyl)amino)methyl)cyclopentane-1,2-diol], the IC50 was < 100 nM.
Then `CN(C[C@H]1C[C@@H](n2ccc3c(N)ncnc32)[C@H](O)[C@@H]1O)[C@H]1C[C@@H](CCc2nc3cc(Br)ccc3[nH]2)C1` [Compound 47, (1R,2S,3R,5R)-3-(4-amino-7H-pyrrolo[2,3-d]pyrimidin-7-yl)-5-((((1r,38)-3-(2-(5-bromo-1H-benzo[d]imidazol-2-yl)ethyl)cyclobutyl)(methyl)amino)methyl)cyclopentane-1,2-diol], with < 100 nM; and `CC(C)CN(C[C@H]1C[C@@H](n2ccc3c(N)ncnc32)[C@H](O)[C@@H]1O)[C@H]1C[C@H](CCc2nc3cc(C(C)(C)C)ccc3[nH]2)C1` [Compound 48, (1R,2S,3R,5R)-3-(4-amino-7H-pyrrolo[2,3-d]pyrimidin-7-yl)-5-((((1s,3R)-3-(2-(5-(tert-butyl)-1H-benzo[d]imidazol-2-yl)ethyl)cyclobutyl)(isobutyl)amino)methyl)cyclopentane-1,2-diol], with < 100 nM; and `CCN(C[C@H]1C[C@@H](n2ccc3c(N)ncnc32)[C@H](O)[C@@H]1O)[C@H]1C[C@H](CCc2nc3cc(C(C)(C)C)ccc3[nH]2)C1` [Compound 49, (1R,2S,3R,5R)-3-(4-amino-7H-pyrrolo[2,3-d]pyrimidin-7-yl)-5-((((1s,3R)-3-(2-(5-(tert-butyl)-1H-benzo[d]imidazol-2-yl)ethyl)cyclobutyl)(ethyl)amino)methyl)cyclopentane-1,2-diol], with < 100 nM.
On to `CC(C)N(C[C@H]1C[C@@H](n2cnc3c(N)ncnc32)[C@H](O)[C@@H]1O)C1CC(CCc2nc3cc(C(C)(C)C)ccc3[nH]2)C1` (stereo partly drawn) [Compound 50, (1R,2S,3R,5R)-3-(6-amino-9H-purin-9-yl)-5-(((3-(2-(5-(tert-butyl)-1H-benzo[d]imidazol-2-yl)ethyl)cyclobutyl)(isopropyl)amino)methyl)cyclopentane-1,2-diol], for which the IC50 is < 100 nM.
Then `CC(C)(C)c1ccc2[nH]c(CC[C@H]3C[C@H](N(C[C@H]4C[C@@H](n5ccc6c(N)ncnc65)[C@H](O)[C@@H]4O)C4CCC4)C3)nc2c1` [Compound 51, (1R,2S,3R,5R)-3-(4-amino-7H-pyrrolo[2,3-d]pyrimidin-7-yl)-5-((((1s,3R)-3-(2-(5-(tert-butyl)-1H-benzo[d]imidazol-2-yl)ethyl)cyclobutyl)(cyclobutyl)amino)methyl)cyclopentane-1,2-diol], with < 100 nM.
Consider `CN(C[C@H]1C[C@@H](n2ccc3c(N)ncnc32)[C@H](O)[C@@H]1O)[C@H]1C[C@@H](CCc2nc3cc(Cl)c(Cl)cc3[nH]2)C1` [Compound 52, (1R,2S,3R,5R)-3-(4-amino-7H-pyrrolo[2,3-d]pyrimidin-7-yl)-5-((((1r,3S)-3-(2-(5,6-dichloro-1H-benzo[d]imidazol-2-yl)ethyl)cyclobutyl)(methyl)amino)methyl)cyclopentane-1,2-diol], for which the IC50 was < 100 nM.
For `CC(C)CN(C[C@H]1C[C@@H](n2ccc3c(N)ncnc32)[C@H](O)[C@@H]1O)[C@H]1C[C@@H](CCc2nc3cc(C(C)(C)C)ccc3[nH]2)C1` [Compound 53, (1R,2S,3R,5R)-3-(4-amino-7H-pyrrolo[2,3-d]pyrimidin-7-yl)-5-((((1r,3S)-3-(2-(5-(tert-butyl)-1H-benzo[d]imidazol-2-yl)ethyl)cyclobutyl)(isobutyl)amino)methyl)cyclopentane-1,2-diol], the concentration for half-maximal inhibition (IC50) is < 100 nM.
As to `CC(C)(C)c1ccc2[nH]c(CC[C@H]3C[C@H](N(CC4CC4)C[C@H]4C[C@@H](n5ccc6c(N)ncnc65)[C@H](O)[C@@H]4O)C3)nc2c1` [Compound 54, (1R,2S,3R,5R)-3-(4-amino-7H-pyrrolo[2,3-d]pyrimidin-7-yl)-5-((((1s,3R)-3-(2-(5-(tert-butyl)-1H-benzo[d]imidazol-2-yl)ethyl)cyclobutyl)(cyclopropylmethyl)amino)methyl)cyclopentane-1,2-diol], the IC50 was < 100 nM.
Regarding `CN(C[C@H]1C[C@@H](n2ccc3c(N)ncnc32)[C@H](O)[C@@H]1O)[C@H]1C[C@H](CCc2nc3cc(Br)ccc3[nH]2)C1` [Compound 55, (1R,2S,3R,5R)-3-(4-amino-7H-pyrrolo[2,3-d]pyrimidin-7-yl)-5-((((1s,3R)-3-(2-(5-bromo-1H-benzo[d]imidazol-2-yl)ethyl)cyclobutyl)(methyl)amino)methyl)cyclopentane-1,2-diol], the IC50 is < 100 nM.
As to `CC(C)N(C[C@H]1C[C@@H](n2ccc3c(N)ncnc32)[C@H](O)[C@@H]1O)C1CC(CCc2nc3cc(OC(F)(F)F)ccc3[nH]2)C1` (stereo partly drawn) [Compound 56, (1R,2S,3R,5R)-3-(4-amino-7H-pyrrolo[2,3-d]pyrimidin-7-yl)-5-((isopropyl(3-(2-(5-(trifluoromethoxy)-1H-benzo[d]imidazol-2-yl)ethyl)cyclobutyl)amino)methyl)cyclopentane-1,2-diol], the IC50 was < 100 nM.
Turning to `CN(C[C@H]1C[C@@H](n2ccc3c(N)ncnc32)[C@H](O)[C@@H]1O)[C@H]1C[C@H](CCc2nc3cc(OC(F)(F)F)ccc3[nH]2)C1` [Compound 57, (1R,2S,3R,5R)-3-(4-amino-7H-pyrrolo[2,3-d]pyrimidin-7-yl)-5-((methyl((1s,3R)-3-(2-(5-(trifluoromethoxy)-1H-benzo[d]imidazol-2-yl)ethyl)cyclobutyl)amino)methyl)cyclopentane-1,2-diol], the IC50 was < 100 nM.
The figure for `CN(C[C@H]1C[C@@H](n2ccc3c(N)ncnc32)[C@H](O)[C@@H]1O)[C@H]1C[C@H](CCc2nc3cc(Cl)c(Cl)cc3[nH]2)C1` [Compound 58, (1R,2S,3R,5R)-3-(4-amino-7H-pyrrolo[2,3-d]pyrimidin-7-yl)-5-((((1s,3R)-3-(2-(5,6-dichloro-1H-benzo[d]imidazol-2-yl)ethyl)cyclobutyl)(methyl)amino)methyl)cyclopentane-1,2-diol] is < 100 nM; for `CC(C)(C)c1ccc2[nH]c(CC[C@H]3C[C@H](N(CC4CCC4)C[C@H]4C[C@@H](n5ccc6c(N)ncnc65)[C@H](O)[C@@H]4O)C3)nc2c1` [Compound 59, (1R,2S,3R,5R)-3-(4-amino-7H-pyrrolo[2,3-d]pyrimidin-7-yl)-5-((((1s,3R)-3-(2-(5-(tert-butyl)-1H-benzo[d]imidazol-2-yl)ethyl)cyclobutyl)(cyclobutylmethyl)amino)methyl)cyclopentane-1,2-diol] it is < 100 nM; for `CC(C)N(C[C@H]1C[C@@H](n2ccc3c(N)ncnc32)[C@H](O)[C@@H]1O)[C@H]1C[C@@H](CCc2nc3cc(OC(F)(F)F)ccc3[nH]2)C1` [Compound 60, (1R,2S,3R,5R)-3-(4-amino-7H-pyrrolo[2,3-d]pyrimidin-7-yl)-5-((isopropyl((1r,3S)-3-(2-(5-(trifluoromethoxy)-1H-benzo[d]imidazol-2-yl)ethyl)cyclobutyl)amino)methyl)cyclopentane-1,2-diol] it is < 100 nM.
On to `CC(C)N(C[C@H]1C[C@@H](n2ccc3c(N)ncnc32)[C@H](O)[C@@H]1O)[C@H]1C[C@H](CCc2nc3cc(OC(F)(F)F)ccc3[nH]2)C1` [Compound 61, (1R,2S,3R,5R)-3-(4-amino-7H-pyrrolo[2,3-d]pyrimidin-7-yl)-5-((isopropyl((1s,3R)-3-(2-(5-(trifluoromethoxy)-1H-benzo[d]imidazol-2-yl)ethyl)cyclobutyl)amino)methyl)cyclopentane-1,2-diol], for which the IC50 lay in the range of 100 to 1000 nM.
The figure for `CN(C[C@H]1C[C@@H](n2ccc3c(N)ncnc32)[C@H](O)[C@@H]1O)C1CC(CCc2nc3cc(C4COC4)ccc3[nH]2)C1` (stereo partly drawn) [Compound 62, (1R,2S,3R,5R)-3-(4-amino-7H-pyrrolo[2,3-d]pyrimidin-7-yl)-5-((methyl(3-(2-(5-(oxetan-3-yl)-1H-benzo[d]imidazol-2-yl)ethyl)cyclobutyl)amino)methyl)cyclopentane-1,2-diol] is 100 to 1000 nM.
Then `CN(C[C@H]1O[C@@H](n2cnc3c(N)ncnc32)[C@H](O)[C@@H]1O)[C@H]1C[C@@H](CCc2nc3cc(C4COC4)ccc3[nH]2)C1` [Compound 63], with 100 to 1000 nM.
Turning to `CN(C[C@H]1O[C@@H](n2cnc3c(N)ncnc32)[C@H](O)[C@@H]1O)C1CC(CCc2nc3cc(C4COC4)ccc3[nH]2)C1` (stereo partly drawn) [Compound 64, (2R,3R,4S,5R)-2-(6-amino-9H-purin-9-yl)-5-((methyl(3-(2-(5-(oxetan-3-yl)-1H-benzo[d]imidazol-2-yl)ethyl)cyclobutyl)amino)methyl)tetrahydrofuran-3,4-diol], the IC50 was in the range of 100 to 1000 nM.
Then `CN(C[C@H]1O[C@@H](n2cnc3c(N)ncnc32)[C@H](O)[C@@H]1O)[C@H]1C[C@H](CCc2nc3cc(C4COC4)ccc3[nH]2)C1` [Compound 65, (2R,3R,4S,5R)-2-(6-amino-9H-purin-9-yl)-5-((methyl((1s,3R)-3-(2-(5-(oxetan-3-yl)-1H-benzo[d]imidazol-2-yl)ethyl)cyclobutyl)amino)methyl)tetrahydrofuran-3,4-diol], with 100 to 1000 nM; and `CC(C)(C)c1ccc2[nH]c(CCC3CC(N(C[C@H]4C[C@@H](n5ccc6c(N)ncnc65)[C@H](O)[C@@H]4O)CC(F)(F)F)C3)nc2c1` (stereo partly drawn) [Compound 66, (1R,2S,3R,5R)-3-(4-amino-7H-pyrrolo[2,3-d]pyrimidin-7-yl)-5-(((3-(2-(5-(tert-butyl)-1H-benzo[d]imidazol-2-yl)ethyl)cyclobutyl) (2,2,2-trifluoroethyl)amino)methyl)cyclopentane-1,2-diol], with 100 to 1000 nM.
